Experiments:
Type in all cases: functional
[1] = tested on: Escherichia coli; test: Antibacterial activity against Escherichia coli by disk diffusion method
[2] = tested on: Staphylococcus; test: Antibacterial activity against Staphylococcus citrus by disc diffusion method
[3] = tested on: Bacillus subtilis; test: Antibacterial activity against Bacillus subtilis by disk diffusion method
[4] = tested on: Klebsiella pneumoniae; test: Antibacterial activity against Klebsiella pneumoniae by disk diffusion method

Structure (SMILES) | inhibition zone (IZ) [1] [mm] | inhibition zone (IZ) [2] [mm] | inhibition zone (IZ) [3] [mm] | inhibition zone (IZ) [4] [mm]
CCOC(=O)C1C(c2ccccc2)CC2C(NC(=O)/C=C/c3ccccc3)C(=O)N21 (stereo not drawn) | <6 | <6 | <6 | <6
CCOC(=O)C1C(c2ccccc2)CC2C(NC(=O)COc3ccccc3)C(=O)N21 (stereo not drawn) | <6 | <6 | <6 | <6
CCOC(=O)C1C(c2ccccc2)CC2C(NC(=O)Cc3ccccc3)C(=O)N21 (stereo not drawn) | <6 | <6 | <6 | <6
CCOC(=O)C1C(c2ccccc2)CC2C(NC(=O)c3ccccc3)C(=O)N21 (stereo not drawn) | <6 | <6 | <6 | <6
CCOC(=O)C(Cc1ccccc1)N1C(=O)C(NC(=O)/C=C/c2ccccc2)C1/C=C/c1ccccc1 (stereo not drawn) | <6 | <6 | <6 | <6
CCOC(=O)C(Cc1ccccc1)N1C(=O)C(NC(=O)COc2ccccc2)C1/C=C/c1ccccc1 (stereo not drawn) | <6 | 9 | >12 | <6
CCOC(=O)C(Cc1ccccc1)N1C(=O)C(NC(=O)Cc2ccccc2)C1/C=C/c1ccccc1 (stereo not drawn) | <6 | 9 | >12 | <6
CCOC(=O)C(Cc1ccccc1)N1C(=O)C(NC(=O)c2ccccc2)C1/C=C/c1ccccc1 (stereo not drawn) | <6 | <6 | <6 | <6
CCOC(=O)C1C(c2ccccc2)CC2C(NN3C(=O)c4ccccc4C3=O)C(=O)N21 (stereo not drawn) | <6 | <6 | <6 | <6
CCOC(=O)C(Cc1ccccc1)N1C(=O)C(NN2C(=O)c3ccccc3C2=O)C1CO (stereo not drawn) | <6 | <6 | <6 | <6
CCOC(=O)C(Cc1ccccc1)N1C(=O)C(NN2C(=O)c3ccccc3C2=O)C1C=O (stereo not drawn) | <6 | <6 | <6 | <6
CCOC(=O)C(Cc1ccccc1)N1C(=O)C(NN2C(=O)c3ccccc3C2=O)C1/C=C/c1ccccc1 (stereo not drawn) | <6 | 9 | >12 | <6
